target: MAPKAPK2 (Homo sapiens, UniProt P49137); experiment: HTS ATP-utilizing enzyme assay, off-chip mobility-shift (Caliper HTS 250); type: biochemical; conditions: test compound 10 μM, kinase listed = active (greater than six-sigma from the mean activity of inactive compounds)
Source text: The following procedures describe the reagent and plate preparation for a HTS of an ATP-utilizing enzyme, such as a protein kinase, run in an off-chip mobility-shift assay format. The following provides an HTS protocol for running a protein kinase HTS screen on a Caliper HTS 250 microfluidics system. The following parameters are dependent on the protein kinase used and can be determined by one skilled in the art as part of a typical assay development process. For example, the peptide substrate used can be identified from the current literature, by screening a peptide library of potential protein kinase substrates, or by other applicable means accepted in the field.
The following table provides typical screen assay parameters appropriate for a Caliper HTS 250 microfluidics system.
The reagents and buffers listed in the following table are generally applicable for developing and running an HTS screen on a human protein kinase using the Caliper HTS 250 system.
The following reagents were prepared using the previously described buffers.
A 2× Master Buffer solution was prepared by combining 200 mL of 1 M HEPES, pH 7.5, 2 mL of 10% Triton X-100, 20 mL of 10% BSA, and 778 mL of H2O.
A TCB Buffer solution was prepared by combining 125 mL of 2× Master Buffer, 10 mL of 0.5 M EDTA, 6.25 mL of 4% coating reagent, 1.01 mL of 100% DMSO, and 107.74 mL H2O.
Assays to determine the kinase inhibitory activity of compounds of the present disclosure were performed using a Caliper HTS 250 microfluidics device, Greiner U-bottom assay plates, a Multidrop for transfer of reagents, and Biomek FX (AMNCBM03) software. Initially, 2.4 μL of a 1 mM solution of a test compound in 100% DMSO was added to a well of the Greiner U-bottom plate. A single Greiner U-bottom plate having 24×16 wells could include multiple test compounds. […] Using the Biomek FX, 10 μL of 0.5 M EDTA was added by the span-8 to wells, indicated as 100% Control and 2.4 μL of 100% DMSO was added by the span-8 to wells, indicated as 0% Control. […] The total reaction volume in each well was 25 μL, and the concentration of the test compound was 10 μM. The assay plate was incubated for 2.5 hrs at 20° C. to 22° C. […] The inhibition of the ATP-utilizing enzyme, such as a particular protein kinase, was determined by measuring the ratio of the peptide substrate to phosphorylated product for each well of the assay plate using the Caliper HTS 250 system.
The use of six-sigma statistical limits represents a conservative method for declaring potential hits among targets. The six-sigma activity, as well as the mean population activity, can be different for each target enzyme.

Sequence of MAPKAPK2 (P49137 whole entry): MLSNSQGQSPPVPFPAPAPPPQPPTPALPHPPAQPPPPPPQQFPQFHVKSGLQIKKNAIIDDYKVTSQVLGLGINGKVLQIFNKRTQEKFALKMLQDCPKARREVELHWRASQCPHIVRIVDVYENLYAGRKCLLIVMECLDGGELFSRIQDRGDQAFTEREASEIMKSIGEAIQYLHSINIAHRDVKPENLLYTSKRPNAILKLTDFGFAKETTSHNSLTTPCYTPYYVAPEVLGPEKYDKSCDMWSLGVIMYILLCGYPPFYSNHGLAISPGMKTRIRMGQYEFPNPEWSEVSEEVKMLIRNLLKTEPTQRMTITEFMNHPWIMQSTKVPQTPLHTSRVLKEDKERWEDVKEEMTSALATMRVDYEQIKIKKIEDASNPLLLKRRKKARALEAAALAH

SMILES	Activity
CN(C)C1CCN(c2ccc(Nc3ccnc4ccc(-c5cccc(Cl)c5)cc34)cc2)C1 (stereo not drawn) [6-(3-chlorophenyl)-N-(4-(3-(dimethylamino)pyrrolidin-1-yl)phenyl)quinolin-4-amine]	MAPKAPK2
CCN(CC)C1CCN(c2ccc(Nc3ccnc4ccc(-c5ccc6ccccc6c5)cc34)cc2)C1 (stereo not drawn) [N-(4-(3-(diethylamino)pyrrolidin-1-yl)phenyl)-6-(naphthalen-2-yl)quinolin-4-amine]	MAPKAPK2
COc1ccc(-c2ccc3nccc(Nc4ccc(N5CCC(N(C)C)C5)cc4)c3c2)cc1F (stereo not drawn) [N-(4-(3-(dimethylamino)pyrrolidin-1-yl)phenyl)-6-(3-fluoro-4-methoxyphenyl)quinolin-4-amine]	MAPKAPK2
Cc1cc(-c2ccc3nccc(Nc4ccc(N5CCC(N(C)C)C5)cc4)c3c2)ccc1C#N (stereo not drawn) [4-(4-(4-(3-(dimethylamino)pyrrolidin-1-yl)phenylamino)quinolin-6-yl)-2-methylbenzonitrile]	MAPKAPK2
CC(C)c1ccc(-c2ccc3nccc(Nc4ccc(N5CCC(N(C)C)C5)cc4)c3c2)cc1 (stereo not drawn) [N-(4-(3-(dimethylamino)pyrrolidin-1-yl)phenyl)-6-(4-isopropylphenyl)quinolin-4-amine]	MAPKAPK2
c1ccc(-c2ccc3nccc(Nc4ccc(N5CCN(C6CCCC6)CC5)cc4)c3c2)cc1 [N-(4-(4-cyclopentylpiperazin-1-yl)phenyl)-6-phenylquinolin-4-amine]	MAPKAPK2
CN(C)C1CCN(c2ccc(Nc3ccnc4ccc(-c5cccc6[nH]ccc56)cc34)cc2)C1 (stereo not drawn) [N-(4-(3-(dimethylamino)pyrrolidin-1-yl)phenyl)-6-(1H-indol-4-yl)quinolin-4-amine]	MAPKAPK2
Cc1ccc(-c2ccc3nccc(Nc4ccc(N5CCC(N(C)C)C5)cc4)c3c2)cc1 (stereo not drawn) [N-(4-(3-(dimethylamino)pyrrolidin-1-yl)phenyl)-6-p-tolylquinolin-4-amine]	MAPKAPK2
COc1ccc(-c2ccc3nccc(Nc4ccc(N5CCN(C6CCCCC6)CC5)cc4)c3c2)cc1 [N-(4-(4-cyclohexylpiperazin-1-yl)phenyl)-6-(4-methoxyphenyl)quinolin-4-amine]	MAPKAPK2
COc1ccc(-c2ccc3nccc(Nc4ccc(N5CCC(N(C)C)C5)cc4)c3c2)cc1 (stereo not drawn) [N-(4-(3-(dimethylamino)pyrrolidin-1-yl)phenyl)-6-(4-methoxyphenyl)quinolin-4-amine]	MAPKAPK2
CN(C)[C@H]1CCN(c2ccc(Nc3ccnc4ccc(-c5ccc6ccccc6c5)cc34)cc2)C1 [(S)-N-(4-(3-(dimethylamino)pyrrolidin-1-yl)phenyl)-6-(naphthalen-2-yl)quinolin-4-amine]	MAPKAPK2
CCCN(c1ccc(N2CCN(C)CC2)cc1)c1ccnc2ccc(-c3ccccc3)cc12 [N-(4-(4-methylpiperazin-1-yl)phenyl)-6-phenyl-N-propylquinolin-4-amine]	MAPKAPK2
CN(C)C1CCN(c2ccc(Nc3ccnc4ccc(-c5cncc(C(=O)O)c5)cc34)cc2)C1 (stereo not drawn) [5-(4-(4-(3-(dimethylamino)pyrrolidin-1-yl)phenylamino)quinolin-6-yl)nicotinic acid]	MAPKAPK2
CN(C)C1CCN(c2ccc(Nc3ccnc4ccc(-c5ccc(C#N)c(F)c5)cc34)cc2)C1 (stereo not drawn) [4-(4-(4-(3-(dimethylamino)pyrrolidin-1-yl)phenylamino)quinolin-6-yl)-2-fluorobenzonitrile]	MAPKAPK2

Further lines, results first:

Activity	SMILES
MAPKAPK2	CN1CCN(c2ccc(Nc3ccnc4ccc(-c5cc(C(F)(F)F)cc(C(F)(F)F)c5)cc34)cc2)CC1 [6-(3,5-bis(trifluoromethyl)phenyl)-N-(4-(4-methylpiperazin-1-yl)phenyl)quinolin-4-amine]
MAPKAPK2	CCN(CC)C1CCN(c2ccc(Nc3ccnc4ccc(-c5ccc(C#N)cc5)cc34)cc2)C1 (stereo not drawn) [4-(4-(4-(3-(diethylamino)pyrrolidin-1-yl)phenylamino)quinolin-6-yl)benzonitrile]
MAPKAPK2	CN1CCN(c2ccc(Nc3ccnc4ccc(-c5ccc(Cl)cc5)cc34)cn2)CC1 [6-(4-chlorophenyl)-N-(6-(4-methylpiperazin-1-yl)pyridin-3-yl)quinolin-4-amine]
MAPKAPK2	CN(CCC(F)(F)F)C1CCN(c2ccc(Nc3ccnc4ccc(-c5ccc(C#N)cc5)cc34)cc2)C1 (stereo not drawn) [4-(4-(4-(3-(methyl(3,3,3-trifluoropropyl)amino)pyrrolidin-1-yl)phenylamino)quinolin-6-yl)benzonitrile]
MAPKAPK2	N#Cc1ccc(-c2ccc3nccc(Nc4ccc(N5CCN(CCCO)CC5)cc4)c3c2)cc1 [4-(4-(4-(4-(3-hydroxypropyl)piperazin-1-yl)phenylamino)quinolin-6-yl)benzonitrile]
MAPKAPK2	N#Cc1ccc(-c2ccc3nccc(Nc4ccc(N5CCN(C6CCCCC6)CC5)cc4)c3c2)cc1 [4-(4-(4-(4-cyclohexylpiperazin-1-yl)phenylamino)quinolin-6-yl)benzonitrile]
MAPKAPK2	CCN1CCN(c2ccc(Nc3ccnc4ccc(-c5ccc(OC)cc5)cc34)cc2)CC1 [N-(4-(4-ethylpiperazin-1-yl)phenyl)-6-(4-methoxyphenyl)quinolin-4-amine]
MAPKAPK2	CN1CCN(c2ccc(Nc3ccnc4ccc(-c5cc(Cl)ccc5Cl)cc34)cc2)CC1 [6-(2,5-dichlorophenyl)-N-(4-(4-methylpiperazin-1-yl)phenyl)quinolin-4-amine]
MAPKAPK2	CCC(C)N1CCN(c2ccc(Nc3ccnc4ccc(-c5ccccc5)cc34)cc2)CC1 (stereo not drawn) [N-(4-(4-sec-butylpiperazin-1-yl)phenyl)-6-phenylquinolin-4-amine]
MAPKAPK2	CN(C)[C@H]1CCN(c2ccc(Nc3ccnc4ccc(-c5ccc(C#N)cc5)cc34)cc2)C1 [(S)-4-(4-(4-(3-(dimethylamino)pyrrolidin-1-yl)phenylamino)quinolin-6-yl)benzonitrile]
MAPKAPK2	COc1ccc(-c2ccc3nccc(Nc4ccc(N5CCN(CCO)CC5)cc4)c3c2)cc1 [2-(4-(4-(6-(4-methoxyphenyl)quinolin-4-ylamino)phenyl)piperazin-1-yl)ethanol]
MAPKAPK2	CN(C)[C@@H]1CCN(c2ccc(Nc3ccnc4ccc(-c5ccc(C#N)cc5)cc34)cc2)C1 [(R)-4-(4-(4-(3-(dimethylamino)pyrrolidin-1-yl)phenylamino)quinolin-6-yl)benzonitrile]
MAPKAPK2	CN(C)CC1CCCN(c2ccc(Nc3ccnc4ccc(-c5ccc(C#N)cc5)cc34)cc2)C1 (stereo not drawn) [4-(4-(4-(3-((dimethylamino)methyl)piperidin-1-yl)phenylamino)quinolin-6-yl)benzonitrile]
MAPKAPK2	CN1CCN(c2ccc(Nc3ccnc4ccc(-c5ccc(C#N)cc5)cc34)nn2)CC1 [4-(4-(6-(4-methylpiperazin-1-yl)pyridazin-3-ylamino)quinolin-6-yl)benzonitrile]
MAPKAPK2	CC1CCN(c2ccc(Nc3ccnc4ccc(-c5ccc(C#N)cc5)cc34)cc2)CC1 [4-(4-(4-(4-methylpiperidin-1-yl)phenylamino)quinolin-6-yl)benzonitrile]
MAPKAPK2	CN1CCN(c2ccc(Oc3ccnc4ccc(-c5ccc(Cl)cc5)cc34)cc2)CC1 [6-(4-chlorophenyl)-4-(4-(4-methylpiperazin-1-yl)phenoxy)quinoline]

— patent US7452887B2, “Quinoline- and isoquinoline-based compounds exhibiting ATP-utilizing enzyme inhibitory activity, and compositions, and uses thereof” (Amphora Discovery Corporation, priority 2004, dated 2008)
